TGI and GI50 data for eight compounds are collected here from PubChem BioAssay (NCI).

What all share (assay): NCI anticancer screen, dose series, 48 h
The test system of test [1] is UACC-257 melanoma.
The test system of test [2] is SNB-78 CNS.
In test [3] the test system is SK-MEL-2 melanoma.
In test [4] the test system is LXFL 529 NSCLC.
In test [5] the test system is K-562 leukemia.
Test [6] relates to 786-0 renal.
Test [7] concerns SK-OV-3 ovarian.
For test [8], the system named is TK-10 renal.
In test [9] the test system is SK-MEL-28 melanoma.
Test [10] relates to BT-549 breast.

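Where inhibition never reached the appropriate level, the endpoint shown equals the highest concentration tested. Otherwise, values were interpolated linearly from a five-concentration, 48-hour dose response in 96-well plates. Here, GI50 denotes the concentration required for 50% inhibition of growth. At the TGI there is no net growth.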

Take `CC1=CC2CC(C)=C(CC[C@]3(C)CC[C@H]([C@@H](C)C(=O)O)OO3)C(C)(C)C2CC1` (stereo partly drawn): the TGI in test [1] was found to be 3.03 µM; in test [2], 4.09 µM; in test [3], 3.09 µM; in [4], 0.414 µM; in test [5], 0.471 µM; in test [6], 4.78 µM. The values for the TGI in test [7], in [8] and in test [9] were 3.68 µM, 3.15 µM and 3.1 µM, respectively.
In the case of `CC1=NN(C(=O)c2ccccc2O)C(=O)/C1=C/c1ccc([N+](=O)[O-])cc1`, the GI50 in [1] was 2.34 µM; in [10], 0.127 µM; in [3], 0.97 µM; in test [5] it was 0.216 µM; in [6], 0.774 µM; in test [7] it was 1.6 µM. Moreover, the GI50 in [8] is 4.83 µM; in test [9], 4.7 µM. In addition, the TGI in [1], in test [2], in test [10], in test [4], in [6] and in [7] was more than 100 µM throughout. For the same compound, the TGI in test [8] and in test [9] was more than 100 µM each time.
With `O=C1OC(=O)c2c1c(-c1ccccc1)cn2-c1ccc(Cl)cc1`, the TGI in [1], in test [2], in test [3], in test [4], in [5] and in [6] was more than 100 µM in each case. Also, the TGI in test [7], in test [8] and in test [9] was more than 100 µM throughout.
In the case of `Cc1cccc(C(=O)c2cccc3ccccc23)c1C(=O)O`, the TGI in test [1], in test [2], in [3], in [4], in test [5] and in [6] was more than 100 µM in each case. The TGI in test [7], in test [8] and in test [9] was more than 100 µM throughout.
On to `COC(=O)Cc1cc(OC)c(OC)cc1Br`, for which the TGI in [1], in test [2], in test [3], in test [4], in test [5] and in test [6] was more than 100 µM throughout. Further, the TGI in test [7], in test [8] and in test [9] was more than 100 µM each time.
`COc1cc2c(cc1O)C=NCC2`: the TGI in test [1], in test [2], in test [3], in test [4], in test [5] and in test [6] was more than 100 µM each time. The TGI in test [7], in test [8] and in test [9] was more than 100 µM throughout.
As to `CCC[CH2][Sn]([CH2]CCC)([O]C(=O)c1c(F)cccc1F)[O]C(=O)c1c(F)cccc1F`, the GI50 in [1] was 0.671 µM; in test [2], 0.333 µM; in test [3] it was 0.221 µM; in [4], 0.139 µM; in test [5], 0.355 µM; in test [6], 0.768 µM. Moreover, the results for the GI50 in test [7], in test [8] and in test [9] were 1.82 µM, 0.956 µM and 0.599 µM, respectively. Moreover, the TGI in test [1] was 1.99 µM; in test [2], 1.47 µM; in test [3], 0.916 µM; in test [4] it was 0.318 µM; in test [5], more than 100 µM; in test [6] it was 2 µM. Further, the values for the TGI in test [7], in [8] and in [9] were 3.24 µM, 2.13 µM and 1.87 µM, respectively.
For `FC(F)(F)C1(Cl)C(c2ccccc2)=C1c1ccccc1`, the TGI in test [1] turned out to be 27.2 µM; in [2], 33.1 µM; in test [3] it was 28.5 µM; in test [4], 26.3 µM; in test [5], 26.2 µM; in test [6] it was 31.1 µM. Further, the TGI in test [7] was 32.4 µM; in test [8] it was 35.4 µM; in test [9], 28.1 µM.
